# Reference: PubChem BioAssay AID2060889 (Molecular Pharmacology Branch, DTP, NCI, 2025)
# System: LG0567-F671-PDC complex spheroids viability
# Assay: Anticancer human tumor LG0567-F671-PDC patient-derived lung adenocarcinoma cell line growth inhibition [RAS]
# Conditions: for IC50: curve of first compound; for viability, T/C: stronger effect = lower value
# How it was run: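 Agents were tested in combination matrices in half-log decrements from a top concentration at or near clinical Cmax (10 microM if undetermined). Targets were multi-cell spheroids of tumour lines plus HUVEC and MSC stromal cells.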
# 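Note: spheroids exposed to compound for seven days before readout.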
# 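Throughout, for IC50: luminescence signal used as a proxy for viable cells.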
smiles,measurement,setting,value
CC1(C)CCC(Nc2ncc(C(F)(F)F)c(-c3c[nH]c4c(P(C)(C)=O)c(C#N)ccc34)n2)CN1 (centres undefined) + CCn1c(-c2cccnc2C(C)OC)c2c3cc(ccc31)N1CCOC(CC(NC(=O)C(C(C)C)N(C)C(=O)C3(F)CCN(C(=O)C#CC(C)(C)N(C)C)CC3)C(=O)N3CCCC(N3)C(=O)OCC(C)(C)C2)C1,IC50,second compound 0.000949 µM,< 0.949 nM
same,IC50,second compound 0.003 µM,< 0.949 nM
same,IC50,second compound 0.00949 µM,< 0.949 nM
same,IC50,second compound 0.03 µM,< 0.949 nM
same,IC50,second compound 0.0949 µM,< 0.949 nM
same,IC50,second compound 0.3 µM,< 0.949 nM
same,"viability, T/C","second compound 0.000949 µM, first compound 0.000949 µM",12.7%
same,"viability, T/C","second compound 0.000949 µM, first compound 0.003 µM",12.4%
same,"viability, T/C","second compound 0.000949 µM, first compound 0.00949 µM",13.2%
same,"viability, T/C","second compound 0.000949 µM, first compound 0.03 µM",13.5%
same,"viability, T/C","second compound 0.000949 µM, first compound 0.0949 µM",14.6%
same,"viability, T/C","second compound 0.000949 µM, first compound 0.3 µM",14.8%
same,"viability, T/C","second compound 0.003 µM, first compound 0.000949 µM",12.1%
same,"viability, T/C","second compound 0.003 µM, first compound 0.003 µM",13.2%
same,"viability, T/C","second compound 0.003 µM, first compound 0.00949 µM",12.7%
same,"viability, T/C","second compound 0.003 µM, first compound 0.03 µM",12.8%
same,"viability, T/C","second compound 0.003 µM, first compound 0.0949 µM",15.4%
same,"viability, T/C","second compound 0.003 µM, first compound 0.3 µM",14.4%
same,"viability, T/C","second compound 0.00949 µM, first compound 0.000949 µM",10.9%
same,"viability, T/C","second compound 0.00949 µM, first compound 0.003 µM",11.9%
same,"viability, T/C","second compound 0.00949 µM, first compound 0.00949 µM",12.1%
same,"viability, T/C","second compound 0.00949 µM, first compound 0.03 µM",13.2%
same,"viability, T/C","second compound 0.00949 µM, first compound 0.0949 µM",14%
same,"viability, T/C","second compound 0.00949 µM, first compound 0.3 µM",15.2%
same,"viability, T/C","second compound 0.03 µM, first compound 0.000949 µM",10.8%
same,"viability, T/C","second compound 0.03 µM, first compound 0.003 µM",12.1%
same,"viability, T/C","second compound 0.03 µM, first compound 0.00949 µM",12.3%
same,"viability, T/C","second compound 0.03 µM, first compound 0.03 µM",12.8%
same,"viability, T/C","second compound 0.03 µM, first compound 0.0949 µM",13.3%
same,"viability, T/C","second compound 0.03 µM, first compound 0.3 µM",13.2%
same,"viability, T/C","second compound 0.0949 µM, first compound 0.000949 µM",10.3%
same,"viability, T/C","second compound 0.0949 µM, first compound 0.003 µM",9.49%
same,"viability, T/C","second compound 0.0949 µM, first compound 0.00949 µM",11.1%
same,"viability, T/C","second compound 0.0949 µM, first compound 0.03 µM",10.3%
same,"viability, T/C","second compound 0.0949 µM, first compound 0.0949 µM",11.1%
same,"viability, T/C","second compound 0.0949 µM, first compound 0.3 µM",10.7%
same,"viability, T/C","second compound 0.3 µM, first compound 0.000949 µM",7.95%
same,"viability, T/C","second compound 0.3 µM, first compound 0.003 µM",7.87%
same,"viability, T/C","second compound 0.3 µM, first compound 0.00949 µM",7.86%
same,"viability, T/C","second compound 0.3 µM, first compound 0.03 µM",8.99%
same,"viability, T/C","second compound 0.3 µM, first compound 0.0949 µM",9.92%
same,"viability, T/C","second compound 0.3 µM, first compound 0.3 µM",10.7%
CCN1CCN(Cc2ccc(Nc3ncc(F)c(-c4cc(F)c5nc(C)n(C(C)C)c5c4)n3)nc2)CC1 + CCn1c(-c2cccnc2C(C)OC)c2c3cc(ccc31)N1CCOC(CC(NC(=O)C(C(C)C)N(C)C(=O)C3(F)CCN(C(=O)C#CC(C)(C)N(C)C)CC3)C(=O)N3CCCC(N3)C(=O)OCC(C)(C)C2)C1,IC50,second compound 0.000949 µM,< 3.16 nM
same,IC50,second compound 0.003 µM,< 3.16 nM
same,IC50,second compound 0.00949 µM,< 3.16 nM
same,IC50,second compound 0.03 µM,< 3.16 nM
same,IC50,second compound 0.0949 µM,< 3.16 nM
same,IC50,second compound 0.3 µM,< 3.16 nM
same,"viability, T/C","second compound 0.000949 µM, first compound 0.00316 µM",15%
same,"viability, T/C","second compound 0.000949 µM, first compound 0.01 µM",15.8%
same,"viability, T/C","second compound 0.000949 µM, first compound 0.0316 µM",14.2%
same,"viability, T/C","second compound 0.000949 µM, first compound 0.1 µM",14.7%
same,"viability, T/C","second compound 0.000949 µM, first compound 0.316 µM",18.1%
same,"viability, T/C","second compound 0.000949 µM, first compound 1 µM",17.5%
same,"viability, T/C","second compound 0.003 µM, first compound 0.00316 µM",14.2%
same,"viability, T/C","second compound 0.003 µM, first compound 0.01 µM",16.5%
same,"viability, T/C","second compound 0.003 µM, first compound 0.0316 µM",13%
same,"viability, T/C","second compound 0.003 µM, first compound 0.1 µM",15.9%
same,"viability, T/C","second compound 0.003 µM, first compound 0.316 µM",18.7%
same,"viability, T/C","second compound 0.003 µM, first compound 1 µM",19.9%
same,"viability, T/C","second compound 0.00949 µM, first compound 0.00316 µM",15.2%
same,"viability, T/C","second compound 0.00949 µM, first compound 0.01 µM",13.4%
same,"viability, T/C","second compound 0.00949 µM, first compound 0.0316 µM",14.1%
same,"viability, T/C","second compound 0.00949 µM, first compound 0.1 µM",14.8%
same,"viability, T/C","second compound 0.00949 µM, first compound 0.316 µM",16.5%
same,"viability, T/C","second compound 0.00949 µM, first compound 1 µM",17.4%
same,"viability, T/C","second compound 0.03 µM, first compound 0.00316 µM",13.1%
same,"viability, T/C","second compound 0.03 µM, first compound 0.01 µM",12.9%
same,"viability, T/C","second compound 0.03 µM, first compound 0.0316 µM",13.7%
same,"viability, T/C","second compound 0.03 µM, first compound 0.1 µM",13.9%
same,"viability, T/C","second compound 0.03 µM, first compound 0.316 µM",16.8%
same,"viability, T/C","second compound 0.03 µM, first compound 1 µM",16.5%
same,"viability, T/C","second compound 0.0949 µM, first compound 0.00316 µM",16%
same,"viability, T/C","second compound 0.0949 µM, first compound 0.01 µM",13.3%
same,"viability, T/C","second compound 0.0949 µM, first compound 0.0316 µM",11.8%
same,"viability, T/C","second compound 0.0949 µM, first compound 0.1 µM",12.2%
same,"viability, T/C","second compound 0.0949 µM, first compound 0.316 µM",15%
same,"viability, T/C","second compound 0.0949 µM, first compound 1 µM",15.1%
same,"viability, T/C","second compound 0.3 µM, first compound 0.00316 µM",10.5%
same,"viability, T/C","second compound 0.3 µM, first compound 0.01 µM",9.89%
same,"viability, T/C","second compound 0.3 µM, first compound 0.0316 µM",10.4%
same,"viability, T/C","second compound 0.3 µM, first compound 0.1 µM",10.7%
same,"viability, T/C","second compound 0.3 µM, first compound 0.316 µM",13.8%
same,"viability, T/C","second compound 0.3 µM, first compound 1 µM",11.4%
CC1(C)CCC(Nc2ncc(C(F)(F)F)c(-c3c[nH]c4c(P(C)(C)=O)c(C#N)ccc34)n2)CN1 (centres undefined),"viability, T/C",compound 0.003 µM,61.7% [middle of 4 runs]
same,"viability, T/C",compound 0.00949 µM,58.9% [middle of 4 runs]
same,"viability, T/C",compound 0.03 µM,58.4% [middle of 4 runs]
same,"viability, T/C",compound 0.0949 µM,60.6% [middle of 4 runs]
same,"viability, T/C",compound 0.3 µM,58% [middle of 4 runs]
